The record followed here is patent US20160114000A1 (Merck Sharp & Dohme, published 2016).

Broadly, the EC50 is the concentration that produces a half-maximal response.

One test addresses T1, human GCGR (Homo sapiens, UniProt P47871).
T1 construct: expressed in transfected cells; grown under Geneticin and Hygromycin selection
As to the kind of experiment: cAMP protocol, cells expressing human GCGR. Format: cell-based. The note with it: for EC50: cAMP production, 20% human serum in assay buffer; for hGCGR/hGLP1R (hTone): ratio of EC50 at human GCGR to EC50 at human GLP1R. (In general: Cyclic AMP is a second messenger, typically raised through Gs and lowered through Gi signalling.)

Test [1] concerns diet-induced obese (DIO) mice (strain C57Bl6/NTac). As to the kind of experiment: Cumulative body weight change (grams) in DIO mice, Example 18. Format: in vivo. To be noted: day 9; for weight loss: 9 nmol/kg daily. As to the method:
Mice were administered a vehicle control or a dose of a peptide daily for nine days. […] The peptide of SEQ ID NO: 9 was administered at doses of 9 and 25 nmol/kg. Cumulative body weight change (grams) was measured each day of the study except on day 3. Results are shown in FIG. 1 and are expressed as mean±SEM.

The next test addresses T2, human GLP-1R (Homo sapiens, UniProt P43220).
T2 construct: expressed in transfected cells; grown under Geneticin and Hygromycin selection
As to the kind of experiment: cAMP protocol, cells expressing human GLP-1R. Format: cell-based. The note with it: cAMP production, 20% human serum in assay buffer; read-out: GLPR1 EC50 (nM) human.

Test [2] has as its system DIO mice (strain C57Bl6/NTac). As to the kind of experiment: Ambient glucose levels in DIO mice, Example 21. Format: in vivo. The note with it: for changes in ambient glucose: 9 nmol/kg, after 9 days of dosing. As to the method:
In addition to cumulative body weight change, ambient glucose levels of the DIO mice (strain C57Bl6/NTac) were measured periodically throughout the study.

In test [3] the test system is DIO mice (strain C57Bl6/NTac). As to the kind of experiment: Body weight change (%) relative to vehicle in DIO mice, second study, Example 19. It is filed as in vivo. The note with it: eight days. The procedure: In addition, the peptide of SEQ ID NO: 8 was administered at 15 nmol/kg, while the peptide of SEQ ID NOs: 10 and 11 were administered at 3 nmol/kg. Body weight was measured daily for eight days and body weight change is expressed as percent relative to vehicle (FIG. 2).

The subject of test [4] is DIO mice (strain C57Bl6/NTac). As to the kind of experiment: Cumulative food intake in DIO mice, Example 20. It is filed as in vivo. The note with it: 3 nmol/kg, after 8 days of dosing, vs vehicle.
Source text: For the studies in Examples 18, 19, 20, and 21, diet induced obesity (DIO) mice (strain C57Bl6/NTac; 20 weeks on a high fat diet, about 47 g) were divided into groups of eight mice per group and the initial average body weight, food intake and basal glucose of each group were matched before peptide administration. Each group of mice was subcutaneously injected daily with a dose of Co-agonist Peptide or vehicle control for 7 to 10 days. The peptides tested in this study were Co-agonist Peptides 1, 2, 3, 4, 5, and 6 (SEQ ID NOs: 6, 7, 8, 9, 10, and 11, respectively) at the doses that varied from 3 nmol/kg to 25 nmol/kg. Body weight, food intake and basal glucose were measured periodically during treatment.

*1 amine or outer side, *2 acyl side, *3 side chain or, on linkers, in order; H or OH if unused. Where a SMILES comes first, the peptide text is derived from it. Side-chain parts run from the residue outwards. [ ]: non-standard residue; d: D form. The star is where a group is joined. Phe(4-CH2NH2) = NCc1ccc(C[C@H](N)C(=O)O)cc1; γGlu = O=C(O)[C@H](CCC(=O)[*:2])N[*:1]; Palmitoyl = CCCCCCCCCCCCCCCC(=O)*

T1 sequence (P47871 26-477): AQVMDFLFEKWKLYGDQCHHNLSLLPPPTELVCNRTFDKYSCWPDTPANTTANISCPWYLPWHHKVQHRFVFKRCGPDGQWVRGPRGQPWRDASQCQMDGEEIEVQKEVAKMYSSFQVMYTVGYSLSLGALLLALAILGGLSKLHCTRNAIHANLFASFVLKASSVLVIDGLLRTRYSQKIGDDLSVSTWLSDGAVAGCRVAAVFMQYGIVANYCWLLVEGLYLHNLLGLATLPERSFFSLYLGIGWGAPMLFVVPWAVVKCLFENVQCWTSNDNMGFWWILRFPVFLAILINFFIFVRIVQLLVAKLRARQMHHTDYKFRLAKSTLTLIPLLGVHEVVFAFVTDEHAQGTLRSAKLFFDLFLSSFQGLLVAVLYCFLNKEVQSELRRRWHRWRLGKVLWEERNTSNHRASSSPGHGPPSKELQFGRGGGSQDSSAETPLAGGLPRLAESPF
T2 sequence (P43220 24-463): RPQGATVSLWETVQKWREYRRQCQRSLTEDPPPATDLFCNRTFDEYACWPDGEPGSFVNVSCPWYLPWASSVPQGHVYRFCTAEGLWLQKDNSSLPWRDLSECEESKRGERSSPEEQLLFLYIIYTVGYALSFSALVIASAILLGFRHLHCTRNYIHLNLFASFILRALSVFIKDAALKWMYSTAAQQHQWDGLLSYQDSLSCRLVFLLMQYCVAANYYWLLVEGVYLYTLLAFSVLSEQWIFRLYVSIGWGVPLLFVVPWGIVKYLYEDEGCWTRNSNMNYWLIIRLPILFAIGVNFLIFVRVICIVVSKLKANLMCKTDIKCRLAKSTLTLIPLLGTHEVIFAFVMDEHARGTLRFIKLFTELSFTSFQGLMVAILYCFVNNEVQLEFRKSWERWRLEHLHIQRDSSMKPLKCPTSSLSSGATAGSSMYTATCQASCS
Procedure for human GCGR: The cAMP protocol was as follows.
(§1) Peptides were dissolved in 100% DMSO and serially diluted to generate 11 point titrations. The peptide solutions were then transferred into 384-well assay plates (150 nL/well). Assay ready frozen cells expressing human GLP-1R or human GCGR were suspended in growth media consisting of DMEM/F12 medium (GIBCO), 10% FBS (GIBCO), lx P/S (GIBCO), 800 μg/mL Geneticin (GIBCO), and 300 μg/mL Hygromycin (Invitrogen). Cells were then diluted in assay buffer consisting of PBS (GIBCO), 7.5% BSA (Perkin Elmer), 100 μM RO 20-1724 (Sigma), and 20% human serum (MP Biomedical). The cell suspensions (15 μL) were then added to the assay plates containing the peptide solutions (30,000 cells/well for human GCGR; 20,000 cells/well for GLP1R). The cells were incubated for 1 hour at room temperature in the dark. Production of cAMP was determined using HitHunter™ cAMPXS kits (DiscoverX). ED buffer (20 μL) was then added to each well and the plates were incubated for 1 hour at room temperature in the dark. Subsequently, EA buffer (20 μL) was added to each well, and the plates were incubated for 1-18 hours at room temperature in the dark. Luminescence was measured using an EnVision Multilabel plate reader (Perkin Elmer). EC50 values were calculated using ADA data analyzer software.
Procedure for human GLP-1R: The cAMP protocol was as follows.
as §1

`CCCCCCCCCCCCCCCC(=O)N[C@@H](CCC(=O)NCCCC[C@H](NC(=O)[C@H](CC(=O)O)NC(=O)[C@H](CO)NC(=O)[C@@H](NC(=O)[C@H](Cc1ccccc1)NC(=O)[C@@H](NC(=O)CNC(=O)[C@H](CCC(N)=O)NC(=O)[C@@H](CO)NC(=O)[C@@H](N)Cc1c[nH]cn1)[C@@H](C)O)[C@@H](C)O)C(=O)N[C@@H](CO)C(=O)N[C@@H](CCCCN)C(=O)N[C@@H](Cc1ccc(O)cc1)C(=O)N[C@@H](CC(C)C)C(=O)N[C@@H](CC(=O)O)C(=O)N[C@H](C(=O)N[C@@H](CCCNC(=N)N)C(=O)N[C@@H](C)C(=O)N[C@@H](C)C(=O)N[C@@H](CCC(N)=O)C(=O)N[C@@H](CC(=O)O)C(=O)N[C@@H](Cc1ccccc1)C(=O)N[C@H](C(=O)N[C@@H](CCC(N)=O)C(=O)N[C@@H](Cc1c[nH]c2ccccc12)C(=O)N[C@@H](CC(C)C)C(=O)N[C@@H](CC(C)C)C(=O)N[C@@H](CC(=O)O)C(=O)N[C@H](C(N)=O)[C@@H](C)O)C(C)C)C(C)C)C(=O)O` [SEQ ID NO: 7] (H-H[dS]QGTFTSDK([γGlu-Palmitoyl])SKYLDVRAAQDFVQWLLDT-NH2; N-terminus assumed): the EC50 stood at 0.041 nM on human GCGR and 0.16 nM on human GLP-1R. Also, the “hGCGR/hGLP1R (hTone)” value on human GCGR stood at 0.30. The weight loss in test [1] is ~3 grams. For the same compound, in test [2], the “changes in ambient glucose” value was “did not exhibit significant changes”. The “weight loss, percent relative to vehicle” value in test [3] (9 nmol/kg daily) was “approximately 5%”.
Turning to `CCCCCCCCCCCCCCCC(=O)N[C@@H](CCC(=O)N[C@@H](CCC(=O)NCCCC[C@H](NC(=O)[C@H](CC(=O)O)NC(=O)[C@H](CO)NC(=O)[C@@H](NC(=O)[C@H](Cc1ccccc1)NC(=O)[C@@H](NC(=O)CNC(=O)[C@@H](NC(=O)C(C)(C)NC(=O)[C@@H](N)Cc1c[nH]cn1)C(C)C)[C@@H](C)O)[C@@H](C)O)C(=O)N[C@@H](CO)C(=O)N[C@@H](CCCCN)C(=O)N[C@@H](Cc1ccc(O)cc1)C(=O)N[C@@H](CC(C)C)C(=O)N[C@@H](CC(=O)O)C(=O)NC(C)(C)C(=O)N[C@@H](CCCNC(=N)N)C(=O)N[C@@H](C)C(=O)N[C@@H](C)C(=O)N[C@@H](CCC(N)=O)C(=O)N[C@@H](CC(=O)O)C(=O)N[C@@H](Cc1ccccc1)C(=O)N[C@H](C(=O)N[C@@H](CCC(N)=O)C(=O)N[C@@H](Cc1c[nH]c2ccccc12)C(=O)N[C@@H](CC(C)C)C(=O)N[C@@H](CCCC)C(=O)N[C@@H](CC(=O)O)C(=O)N[C@H](C(N)=O)[C@@H](C)O)C(C)C)C(=O)O)C(=O)O` [SEQ ID NO: 9], on human GCGR, the midpoint of the response, the EC50, lay at 0.89 nM and the “hGCGR/hGLP1R (hTone)” value was determined as 8.98. Besides, the weight loss in test [1] is recorded as ~3 grams. Moreover, in test [1] (25 nmol/kg daily), the body weight loss turned out to be 10.5 grams. On human GLP-1R, the EC50 was 0.1 nM. For the same compound, the “changes in ambient glucose” value in test [2] is given as “did not exhibit significant changes”. For the same compound, the “decrease in ambient glucose compared to vehicle” value in test [2] (25 nmol/kg, second day of dosing) was -75 mg/dL. Besides, in test [3] (9 nmol/kg daily), the “weight loss, percent relative to vehicle” value is listed as “approximately 5%”.
With `CCCCCCCCCCCCCCCC(=O)N[C@@H](CCC(=O)N[C@@H](CCC(=O)NCCCC[C@H](NC(=O)[C@H](CC(=O)O)NC(=O)[C@H](CO)NC(=O)[C@@H](NC(=O)[C@H](Cc1ccccc1)NC(=O)[C@@H](NC(=O)CNC(=O)[C@H](CCC(N)=O)NC(=O)[C@@H](CO)NC(=O)[C@@H](N)Cc1c[nH]cn1)[C@@H](C)O)[C@@H](C)O)C(=O)N[C@@H](CO)C(=O)N[C@@H](CCCCN)C(=O)N[C@@H](Cc1ccc(O)cc1)C(=O)N[C@@H](CC(C)C)C(=O)N[C@@H](CC(=O)O)C(=O)N[C@@H](C)C(=O)N[C@@H](CCCNC(=N)N)C(=O)N[C@@H](C)C(=O)N[C@@H](C)C(=O)N[C@@H](CCC(N)=O)C(=O)N[C@@H](CC(=O)O)C(=O)N[C@@H](Cc1ccccc1)C(=O)N[C@H](C(=O)N[C@@H](CCC(N)=O)C(=O)N[C@@H](Cc1c[nH]c2ccccc12)C(=O)N[C@@H](CC(C)C)C(=O)N[C@@H](CC(C)C)C(=O)N[C@@H](CC(=O)O)C(=O)N[C@H](C(N)=O)[C@@H](C)O)C(C)C)C(=O)O)C(=O)O` [SEQ ID NO: 10], the food intake result in test [4] is “significant suppression of food intake”. The “hGCGR/hGLP1R (hTone)” value at human GCGR stood at 0.90. For the same compound, the weight loss entry in test [1] is recorded as “approximately 13 grams”. Also, the “weight loss, percent relative to vehicle” value in test [3] (3 nmol/kg daily) is reported as “approximately 17%”.
On to `CCCCCCCCCCCCCCCC(=O)N[C@@H](CCC(=O)N[C@@H](CCC(=O)NCCCC[C@H](NC(=O)[C@H](CC(=O)O)NC(=O)[C@H](CO)NC(=O)[C@@H](NC(=O)[C@H](Cc1ccccc1)NC(=O)[C@@H](NC(=O)CNC(=O)[C@H](CCC(N)=O)NC(=O)[C@@H](CO)NC(=O)[C@@H](N)Cc1c[nH]cn1)[C@@H](C)O)[C@@H](C)O)C(=O)N[C@@H](CO)C(=O)N[C@@H](CCCCN)C(=O)N[C@@H](Cc1ccc(O)cc1)C(=O)N[C@@H](CC(C)C)C(=O)N[C@@H](CC(=O)O)C(=O)N[C@@H](CCC(=O)O)C(=O)N[C@@H](CCCNC(=N)N)C(=O)N[C@@H](C)C(=O)N[C@@H](C)C(=O)N[C@@H](CCC(N)=O)C(=O)N[C@@H](CC(=O)O)C(=O)N[C@@H](Cc1ccccc1)C(=O)N[C@H](C(=O)N[C@@H](CCC(N)=O)C(=O)N[C@@H](Cc1c[nH]c2ccccc12)C(=O)N[C@@H](CC(C)C)C(=O)N[C@@H](CC(C)C)C(=O)N[C@@H](CC(=O)O)C(=O)N[C@H](C(N)=O)[C@@H](C)O)C(C)C)C(=O)O)C(=O)O` [SEQ ID NO: 11, reference compound], for which, in test [4], the food intake entry is listed as “no change in food intake”. At human GCGR, the “hGCGR/hGLP1R (hTone)” value is 1.30. The weight loss entry in test [1] is given as “approximately 13 grams”. Further, the “weight loss, percent relative to vehicle” value in test [3] (3 nmol/kg daily) is reported as “no weight loss efficacy”.
Regarding `CCCCCCCCCCCCCCCC(=O)N[C@@H](CCC(=O)N[C@@H](CCC(=O)NCCCC[C@H](NC(=O)[C@H](CC(=O)O)NC(=O)[C@H](CO)NC(=O)[C@@H](NC(=O)[C@H](Cc1ccccc1)NC(=O)[C@@H](NC(=O)CNC(=O)[C@H](CCC(N)=O)NC(=O)[C@@H](CO)NC(=O)[C@@H](N)Cc1c[nH]cn1)[C@@H](C)O)[C@@H](C)O)C(=O)N[C@@H](CO)C(=O)N[C@@H](CCCCN)C(=O)N[C@@H](Cc1ccc(O)cc1)C(=O)N[C@@H](CC(C)C)C(=O)N[C@@H](CC(=O)O)C(=O)N[C@@H](CCC(=O)O)C(=O)N[C@@H](CCCNC(=N)N)C(=O)N[C@@H](C)C(=O)N[C@@H](C)C(=O)N[C@@H](CCC(N)=O)C(=O)N[C@@H](CC(=O)O)C(=O)N[C@@H](Cc1ccccc1)C(=O)N[C@H](C(=O)N[C@@H](CCC(N)=O)C(=O)N[C@@H](Cc1c[nH]c2ccccc12)C(=O)N[C@@H](CC(C)C)C(=O)N[C@@H](CCS(C)(=O)=O)C(=O)N[C@@H](CC(=O)O)C(=O)N[C@H](C(N)=O)[C@@H](C)O)C(C)C)C(=O)O)C(=O)O` [SEQ ID NO: 15], at human GCGR, a half-maximal effect (EC50) was put at 0.02 nM and the “hGCGR/hGLP1R (hTone)” value is 1.10. For the same compound, the EC50 at human GLP-1R amounted to 0.02 nM.
Turning to `CCCCCCCCCCCCCCCC(=O)N[C@@H](CCC(=O)N[C@@H](CCC(=O)NCc1ccc(C[C@H](NC(=O)[C@H](CC(=O)O)NC(=O)[C@H](CO)NC(=O)[C@@H](NC(=O)[C@H](Cc2ccccc2)NC(=O)[C@@H](NC(=O)CNC(=O)[C@H](CCC(N)=O)NC(=O)[C@@H](CO)NC(=O)[C@@H](N)Cc2c[nH]cn2)[C@@H](C)O)[C@@H](C)O)C(=O)N[C@@H](CO)C(=O)N[C@@H](CCCCN)C(=O)N[C@@H](Cc2ccc(O)cc2)C(=O)N[C@@H](CC(C)C)C(=O)N[C@@H](CC(=O)O)C(=O)N[C@@H](C)C(=O)N[C@@H](CCCNC(=N)N)C(=O)N[C@@H](C)C(=O)N[C@@H](C)C(=O)N[C@@H](CCC(N)=O)C(=O)N[C@@H](CC(=O)O)C(=O)N[C@@H](Cc2ccccc2)C(=O)N[C@H](C(=O)N[C@@H](CCC(N)=O)C(=O)N[C@@H](Cc2c[nH]c3ccccc23)C(=O)N[C@@H](CC(C)C)C(=O)N[C@@H](CC(C)C)C(=O)N[C@@H](CC(=O)O)C(=O)N[C@H](C(N)=O)[C@@H](C)O)C(C)C)cc1)C(=O)O)C(=O)O` [SEQ ID NO: 17, His^1-D-Ser^2-Gln-Gly-Thr-Phe-Thr-Ser-Asp-pAF^10(γGlu-γGlu-C16)-Ser-Lys-Tyr-Leu-Asp^15-Ala^16-Arg-Ala-Ala-Gln-Asp-Phe^22-Val^23-Gln-Trp^25-Leu-Leu-Asp-Thr-CONH2] (H-H[dS]QGTFTSD[Phe(4-CH2NH2)]([γGlu-γGlu-Palmitoyl])SKYLDARAAQDFVQWLLDT-NH2), at human GCGR, the midpoint of the response, the EC50, lay at 0.05 nM and the “hGCGR/hGLP1R (hTone)” value stood at 0.98. The EC50 on human GLP-1R worked out at 0.05 nM.
